In patent US6355799B1, “Substituted benzene compounds, process for their preparation, and herbicidal and defoliant compositions containing them” (ISK Americas Incorporated, priority 1997, dated 2002):

Key:
Assay type in all cases: in vivo
[1] = system: sicklepod (Cassia obtusifolia, CASOB); assay: Pre-emerge test, greenhouse herbicide activity screening; conditions: for phytotoxicity rating CASOB: pre-emerge, 14 days after application, scale 0-100; for Pre-emerge Herbicidal Activity CASOB: phytotoxicity rating 0-100, 14 days after application
From the text: (§1) A standard greenhouse herbicide activity screening system was used to evaluate the herbicidal efficacy and crop safety of these test compounds. Seven broadleaf weed species including redroot pigweed (Amaranthus retroflexus, AMARE, velvetleaf (Abutilon theophrasti, ABUTH), sicklepod (Cassia obtusifolia, CASOB), ivyleaf morningglory (Ipomoea hederacea, IPOHE), lambsquarters (Chenopodium album, CHEAL), common ragweed (Ambrosia artemisizfolia L., AMBEL), and cocklebur (Xanthium strumarium, XANST) were used as test species. Four grass weed species including green foxtail (Setaria viridis, SETVI), barnyardgrass (Echinochloa crus-galli, ECHCG), johnsongrass (Sorghum halepense, SORHA), and large crabgrass (Digitaria sanguinalis, DIGSA) were also used. In addition, three crop species, field corn (Zea mays L., var. Dekalb 535, CORN), soybean (Glycine max L., var. Pella 86, SOY), and is upland rice (Oryza sp., var. Tebonnet, RICE) were included.
(§2) All plants were grown in 10 cm square plastic pots which were filled with a sandy loam soil mix. For pre-emerge tests, seeds were planted one day prior to application of the test compounds. For post-emerge tests, seeds were planted 8-21 days prior to the test to allow emergence and good foliage development prior to application of the test substances. At the time of the post-emerge application, plants of all species were usually at the 2-3 leaf stage of development.
(§3) All test compounds Were dissolved in acetone and applied to the test units in a volume of 187 l /ha. Test materials were applied at rates ranging from 15 g ai/ha to 1000 g ai/ha using a track sprayer equipped with a TJ8001E even flow flat fan spray nozzle. Plants were arranged on a shelf so that the top of the canopy (post-emerge) or top of the soil surface (pre-emerge) was 40-45 cm below the nozzle. Pressurized air was used to force the test solution through the nozzle as it was mechanically advanced (via electrically driven chain drive) over the top of all test plants/pots. This application simulates a typical commercial field herbicide application.
(§4) In the post-emerge test, a commercial non-ionic surfactant was also included (0.25% v/v) to enhance wetting of the leaf surfaces of target plants. Immediately after application, test units of the pre-emerge applications were watered at the soil surface to incorporate the test materials. Subsequently, these test units were bottom-watered. Post-emerge test units were always bottom-watered.
(§5) At 14 days after application of the test materials, phytotoxicity ratings were recorded. A rating scale of 0-100 was used as previously described in Research Methods in Weed Science, 2nd edition, B. Truelove, Ed., Southern Weed Science Society, Auburn University, Auburn, Ala. 1977. Briefly, “0” corresponds to no damage and “100” corresponds to complete death of all plants in the test unit. This scale was used both to determine efficacy against weed species and damage to crop species. Herbicide activity data for various compounds of this invention, which are shown by compound No. in Tables 1-8, are shown in Tables 11 and 12.

[2] = system: lambsquarters (Chenopodium album, CHEAL); assay: as above; conditions: for phytotoxicity rating CHEAL: pre-emerge, 14 days after application, scale 0-100; for Pre-emerge Herbicidal Activity CHEAL: phytotoxicity rating 0-100, 14 days after application
From the text: as §1, §2, §3, §4, §5

[3] = system: large crabgrass (Digitaria sanguinalis, DIGSA); assay: as above; conditions: for phytotoxicity rating DIGSA: pre-emerge, 14 days after application, scale 0-100; for Pre-emerge Herbicidal Activity DIGSA: phytotoxicity rating 0-100, 14 days after application
From the text: as §1, §2, §3, §4, §5

[4] = system: ivyleaf morningglory (Ipomoea hederacea, IPOHE); assay: as above; conditions: for phytotoxicity rating IPOHE: pre-emerge, 14 days after application, scale 0-100; for Pre-emerge Herbicidal Activity IPOHE: phytotoxicity rating 0-100, 14 days after application
From the text: as §1, §2, §3, §4, §5

[5] = system: green foxtail (Setaria viridis, SETVI); assay: as above; conditions: for phytotoxicity rating SETVI: pre-emerge, 14 days after application, scale 0-100; for Pre-emerge Herbicidal Activity SETVI: phytotoxicity rating 0-100, 14 days after application
From the text: as §1, §2, §3, §4, §5

[6] = system: velvetleaf (Abutilon theophrasti, ABUTH); assay: as above; conditions: for phytotoxicity rating ABUTH: pre-emerge, 14 days after application, scale 0-100; for Pre-emerge Herbicidal Activity ABUTH: phytotoxicity rating 0-100, 14 days after application
From the text: as §1, §2, §3, §4, §5

[7] = system: barnyardgrass (Echinochloa crus-galli, ECHCG); assay: as above; conditions: for phytotoxicity rating ECHCG: pre-emerge, 14 days after application, scale 0-100; for Pre-emerge Herbicidal Activity ECHCG: phytotoxicity rating 0-100, 14 days after application
From the text: as §1, §2, §3, §4, §5

[8] = system: redroot pigweed (Amaranthus retroflexus, AMARE); assay: as above; conditions: for phytotoxicity rating AMARE: pre-emerge, 14 days after application, scale 0-100; for Pre-emerge Herbicidal Activity AMARE: phytotoxicity rating 0-100, 14 days after application
Outline: (§6)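 Compounds in acetone were track-sprayed at 187 l/ha, 15–1000 g ai/ha, onto sandy loam pots. Pre-emerge seeds were sown one day before spraying, with surface watering afterwards. Post-emerge plants were at the 2–3 leaf stage and sprayed with 0.25% v/v non-ionic surfactant. Injury was rated 0–100 at 14 days.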

[9] = system: upland rice (Oryza sp., var. Tebonnet, RICE); assay: Pre-emerge test, crop safety; conditions: for phytotoxicity rating RICE (crop damage): pre-emerge, 14 days after application, scale 0-100; for Pre-emerge Herbicidal Activity RICE: crop damage rating 0-100, 14 days after application
Outline: as §6

[10] = system: field corn (Zea mays L., var. Dekalb 535, CORN); assay: Pre-emerge test, crop safety; conditions: for phytotoxicity rating CORN (crop damage): pre-emerge, 14 days after application, scale 0-100; for Pre-emerge Herbicidal Activity CORN: crop damage rating 0-100, 14 days after application
Outline: as §6

[11] = system: sicklepod (Cassia obtusifolia, CASOB); assay: Post-emerge test, greenhouse herbicide activity screening; conditions: post-emerge, 14 days after application, rating scale 0-100
From the text: as §1, §2, §3, §4, §5

[12] = system: lambsquarters (Chenopodium album, CHEAL); assay: as above; conditions: post-emerge, 14 days after application, rating scale 0-100
From the text: as §1, §2, §3, §4, §5

[13] = system: large crabgrass (Digitaria sanguinalis, DIGSA); assay: as above; conditions: post-emerge, 14 days after application, rating scale 0-100
From the text: as §1, §2, §3, §4, §5

[14] = system: redroot pigweed (Amaranthus retroflexus, AMARE); assay: as above; conditions: post-emerge, 14 days after application
From the text: as §1, §2, §3, §4, §5

[15] = system: ivyleaf morningglory (Ipomoea hederacea, IPOHE); assay: as above; conditions: post-emerge, 14 days after application, rating scale 0-100
From the text: as §1, §2, §3, §4, §5

[16] = system: green foxtail (Setaria viridis, SETVI); assay: as above; conditions: post-emerge, 14 days after application, rating scale 0-100
From the text: as §1, §2, §3, §4, §5

[17] = system: velvetleaf (Abutilon theophrasti, ABUTH); assay: as above; conditions: post-emerge, 14 days after application, rating scale 0-100
From the text: as §1, §2, §3, §4, §5

[18] = system: barnyardgrass (Echinochloa crus-galli, ECHCG); assay: as above; conditions: post-emerge, 14 days after application, rating scale 0-100
From the text: as §1, §2, §3, §4, §5

[19] = system: upland rice (Oryza sp., var. Tebonnet, RICE); assay: Post-emerge test, crop safety; conditions: post-emerge, 14 days after application, rating scale 0-100
Outline: as §6

[20] = system: field corn (Zea mays L., var. Dekalb 535, CORN); assay: Post-emerge test, crop safety; conditions: post-emerge, 14 days after application, rating scale 0-100
Outline: as §6

[21] = 250 g ai/ha, rating scale 0-100

COc1c(Cl)cc(F)c(-n2c(=O)cc(C(F)(F)F)n(N)c2=O)c1NC(=O)COCc1ccccc1 [2-187]
40: phytotoxicity rating RICE (crop damage) ([9]; 63 g ai/ha) | DIGSA phytotoxicity rating ([13]; 250 g ai/ha) | SETVI phytotoxicity rating ([16]; 63 g ai/ha) | ECHCG phytotoxicity rating ([18]; 250 g ai/ha)
15: CORN phytotoxicity rating (crop damage) ([20]; 63 g ai/ha)
10: DIGSA phytotoxicity rating ([13]; 63 g ai/ha)
20: phytotoxicity rating ECHCG ([7]; 63 g ai/ha) | ECHCG phytotoxicity rating ([18]; 63 g ai/ha)
0: phytotoxicity rating CORN (crop damage) ([10]; 63 g ai/ha)
70: CASOB phytotoxicity rating ([11]; 63 g ai/ha)
75: phytotoxicity rating IPOHE ([4]; 63 g ai/ha) | CORN phytotoxicity rating (crop damage) ([20]; 250 g ai/ha)
50: phytotoxicity rating SETVI ([5]; 63 g ai/ha) | RICE phytotoxicity rating (crop damage) ([19]; 63 g ai/ha)
90: phytotoxicity rating DIGSA ([3]; 63 g ai/ha) | phytotoxicity rating RICE (crop damage) ([9]; 250 g ai/ha) | phytotoxicity rating CORN (crop damage) ([10]; 250 g ai/ha) | RICE phytotoxicity rating (crop damage) ([19]; 250 g ai/ha)
60: phytotoxicity rating CASOB ([1]; 63 g ai/ha) | phytotoxicity rating ECHCG ([7]; 250 g ai/ha) | SETVI phytotoxicity rating ([16]; 250 g ai/ha)
100: phytotoxicity rating CASOB ([1]; 250 g ai/ha) | phytotoxicity rating CHEAL ([2]; 63 g ai/ha) | phytotoxicity rating CHEAL ([2]; 250 g ai/ha) | phytotoxicity rating DIGSA ([3]; 250 g ai/ha) | phytotoxicity rating IPOHE ([4]; 250 g ai/ha) | phytotoxicity rating SETVI ([5]; 250 g ai/ha) | phytotoxicity rating ABUTH ([6]; 63 g ai/ha) | phytotoxicity rating ABUTH ([6]; 250 g ai/ha) | phytotoxicity rating AMARE ([8]; 63 g ai/ha) | phytotoxicity rating AMARE ([8]; 250 g ai/ha) | CASOB phytotoxicity rating ([11]; 250 g ai/ha) | CHEAL phytotoxicity rating ([12]; 63 g ai/ha) | CHEAL phytotoxicity rating ([12]; 250 g ai/ha) | AMARE phytotoxicity rating [14, 21] | IPOHE phytotoxicity rating ([15]; 63 g ai/ha) | IPOHE phytotoxicity rating ([15]; 250 g ai/ha) | ABUTH phytotoxicity rating ([17]; 63 g ai/ha) | ABUTH phytotoxicity rating ([17]; 250 g ai/ha)
99: AMARE phytotoxicity rating ([14]; 63 g ai/ha, rating scale 0-100)

COc1c(Cl)ccc(-n2c(=O)cc(C(F)(F)F)n(C)c2=O)c1NC(=O)c1ccc2ccccc2c1 [2-202]
100: Pre-emerge Herbicidal Activity CHEAL ([2]; 63 g ai/ha) | Pre-emerge Herbicidal Activity CHEAL ([2]; 250 g ai/ha) | Pre-emerge Herbicidal Activity DIGSA ([3]; 250 g ai/ha) | Pre-emerge Herbicidal Activity IPOHE ([4]; 63 g ai/ha) | Pre-emerge Herbicidal Activity IPOHE ([4]; 250 g ai/ha) | Pre-emerge Herbicidal Activity SETVI ([5]; 250 g ai/ha) | Pre-emerge Herbicidal Activity ABUTH ([6]; 63 g ai/ha) | Pre-emerge Herbicidal Activity ABUTH ([6]; 250 g ai/ha) | Pre-emerge Herbicidal Activity ECHCG ([7]; 250 g ai/ha) | Pre-emerge Herbicidal Activity AMARE ([8]; 63 g ai/ha) | Pre-emerge Herbicidal Activity AMARE ([8]; 250 g ai/ha) | phytotoxicity rating CASOB ([11]; 63 g ai/ha) | phytotoxicity rating CASOB ([11]; 250 g ai/ha) | phytotoxicity rating CHEAL ([12]; 63 g ai/ha) | phytotoxicity rating CHEAL ([12]; 250 g ai/ha) | phytotoxicity rating AMARE ([14]; 63 g ai/ha, rating scale 0-100 (0 no damage, 100 complete death)) | phytotoxicity rating AMARE [14, 21] | phytotoxicity rating IPOHE ([15]; 63 g ai/ha) | phytotoxicity rating IPOHE ([15]; 250 g ai/ha) | phytotoxicity rating ABUTH ([17]; 63 g ai/ha) | phytotoxicity rating ABUTH ([17]; 250 g ai/ha)
0: Pre-emerge Herbicidal Activity CORN ([10]; 63 g ai/ha) | phytotoxicity rating DIGSA ([13]; 63 g ai/ha)
10: phytotoxicity rating ECHCG ([18]; 63 g ai/ha)
60: phytotoxicity rating RICE (crop damage) ([19]; 250 g ai/ha)
15: phytotoxicity rating CORN (crop damage) ([20]; 63 g ai/ha)
50: Pre-emerge Herbicidal Activity CORN ([10]; 250 g ai/ha)
20: phytotoxicity rating RICE (crop damage) ([19]; 63 g ai/ha)
40: Pre-emerge Herbicidal Activity SETVI ([5]; 63 g ai/ha) | Pre-emerge Herbicidal Activity RICE ([9]; 63 g ai/ha) | phytotoxicity rating SETVI ([16]; 250 g ai/ha) | phytotoxicity rating ECHCG ([18]; 250 g ai/ha)
30: Pre-emerge Herbicidal Activity CASOB ([1]; 63 g ai/ha) | Pre-emerge Herbicidal Activity DIGSA ([3]; 63 g ai/ha) | phytotoxicity rating DIGSA ([13]; 250 g ai/ha) | phytotoxicity rating SETVI ([16]; 63 g ai/ha) | phytotoxicity rating CORN (crop damage) ([20]; 250 g ai/ha)
90: Pre-emerge Herbicidal Activity ECHCG ([7]; 63 g ai/ha) | Pre-emerge Herbicidal Activity RICE ([9]; 250 g ai/ha)
80: Pre-emerge Herbicidal Activity CASOB ([1]; 250 g ai/ha)
